Experimental data: patent publication US20230293348A1, “DYES FOR USE IN A METHOD OF PHOTOPORATION OF THE INNER LIMITING MEMBRANE” (UNIVERSITEIT GENT, priority 2020, published 2023)
“Also recorded” adds a separate entry of the source.

How the values were obtained:
[1] = system: retinal surface of bovine retinal explants (Müller cell endfeet, nerve fibers); assay: Retinal surface imaging with Mitotracker Deep Red and Hoechst after ICG photoporation; conditions: ICG 0,1 mg/ml, 0,4 J/cm^2 laser
Experimental: FIG. 4: Images of the retinal surface after staining with Mitotracker and Hoechst. […] Scale bar = 25 µm.
Furthermore, a method was tested to look at the retinal surface in more detail, allowing to visualize several types of structures such as nerve fibers, blood vessels, and Müller cells (cell type located right underneath the ILM). To this end, intact retinal explants were stained with a dye mixture of Mitotracker Deep Red and Hoechst, which allows to identify these structures. […] Indeed, in untreated explants, the retinal surface was neatly organized: a mosaic of Müller cell endfeet intertwined with bundles of nerve fibers.

human ILM [2] = assay: Inherent affinity of free ICG for the ILM; type: binding; conditions: preliminary data
human ILM [3] = assay: ILM ablation by ICG photoporation in human explants, cryosections stained for Collagen IV; conditions: 1 mg/ml ICG, 0,4 J/cm2 laser fluence
Experimental: FIG. 6: Images of cryosections of human explants stained for nuclei in the retina by Hoechst staining (indicated in grey - low contrast) and showing the ILM stained by antibodies against Collagen IV (indicated in white); scale = 25 µm. Top row: untreated; bottom row: treatment with 1 mg/ml ICG and 0,4 J/cm^2 laser fluence. Absence of the ILM is indicated by a dashed line.
Therefore, the approach was tested on human samples. Since the thickness of the ILM is also age dependent, we investigated human ILM ablation in younger and older patients. […] As illustrated in the top row, the ILM in untreated explants becomes gradually thicker with increasing age, which is an observation in accordance with literature (FIG. 6, untreated). Treated samples (bottom row) were treated with 1 mg/ml ICG and 0,4 J/cm2 laser fluence. Absence of the ILM is indicated by a dashed line.

[4] = system: ILM of bovine retinal explants; assay: ILM perforation by ICG photoporation, cryosections stained for Collagen IV; conditions: ICG 1 mg/ml, 0,4 J/cm^2 800 nm 2 ps laser pulses
Text: FIG. 2: Images of cryosections of conventional bovine explants stained for nuclei in the retina by Hoechst staining (indicated in grey - low contrast) and showing the ILM stained by antibodies against Collagen IV (indicated in white). […] The study aimed to perforate the ILM by photoporation. Thereto, a vital dye, in particular Indocyanine Green (ICG), was delivered to the ILM after which the retina was illuminated with a powerful but extremely short pulse of 800 nm laser light. Without being bound to theory, the absorbance of light by the ICG can result in the evaporation of the surrounding water, creating vapour nanobubbles (VNBs) which upon collapse can cause damage to neighbouring tissue such as in particular the ILM. To generate ILM perforation, an ICG solution (1 mg/ml) was applied on the ILM surface of bovine retinal explants followed by laser scanning of the tissue with 2 picosecond pulses.

ILM of bovine explants = assay: Retinal entry of 100 nm polystyrene nanoparticles (Fluospheres) after ICG-mediated ILM perforation; conditions: ICG 1 mg/ml, 0,4 J/cm^2 laser
Text: FIG. 5: Images of cryosections of bovine explants stained for nuclei in the retina by Hoechst (indicated in grey - low contrast). […] Scale = 25 µm
It was further tested whether ICG-mediated ILM ablation allowed to deliver therapeutics to the retina.

Question: Which “retinal surface organization (Mitotracker and Hoechst staining)” value [1] does the source give for `CC1(C)C(/C=C/C=C/C=C/C=C2\N(CCCCS(=O)(=O)O)c3ccc4ccccc4c3C2(C)C)=[N+](CCCCS(=O)(=O)[O-])c2ccc3ccccc3c21` [ICG, Indocyanine Green] here?
Answer: greatly disturbed; also recorded: way more disorganized

Question: And the “inherent affinity for the human ILM versus the bovine ILM” value (human ILM [2])?
Answer: remarkably higher than for the bovine ILM

Question: What about the “ILM integrity on cryosections” value (human ILM [3]; human explant patient one) of the same compound?
Answer: fragmented ILM

Question: And the “ILM integrity on cryosections” value (human ILM [3]; human explant patient three)?
Answer: completely absent

Question: And the “ILM integrity on cryosections” value (human ILM [3]; human explant patient two)?
Answer: completely absent

Question: What about the “ILM integrity on cryosections” value [4] of the same compound?
Answer: ILM ablation; also recorded: most of the ILM was absent with only small parts remaining

Question: What about the “retinal entry of 100 nm polystyrene nanoparticles” value (ILM of bovine explants) of the same compound?
Answer: high retinal uptake; also recorded: massive entry of the nanoparticles into the retina
